Structures can show the parent of a compound that is named as a salt. Numbered stars: 1 amine (or outer) side, 2 acyl side, 3 side chain; on linkers, the order of the positions; unused ones are H or OH. Bridge positions count the residues as written; N and C are the ends. Square brackets hold non-standard residues; d marks the D form. Peptide text beside a SMILES is read from it. I, II: the chains in the order shown. Actinocin(9to1) = Cc1c2oc3c(C)ccc(C(=O)[*:1])c3nc-2c(C(=O)[*:2])c(N)c1=O; NMeV = CN[C@H](C(=O)O)C(C)C; Sar = CNCC(=O)O
Assays:
[1] = cited from earlier work
prostates cancers = settings: mouse, in vivo; cited from earlier work
[2] = tested on: cancer cell lines (WM115, KS1617); test: Fluorescence imaging of binding of IC3-OSu-labeled carrier proteins to cancer cells; type: cell-based; settings: 100 μl of 0.1 mg/ml labeled protein, about 10 min, room temperature, washed 3 times with PBS
Protocol: WM115 (high-level expression of αvβ3 integrin) and MCF7 (low level expression of αvβ3 integrin, about 10% of WM115) cell lines were grown in α MEM medium enriched with 10% fetal bovine serum (FBS) and 60 μg/ml of penicillin and 100 μg/ml of streptomycin. KS1617 cell line (high-level expression of CD13) was grown in RPMI1640 medium also enriched with 10% FBS and 60 μg/ml of penicillin and 100 μg/ml of streptomycin. The cell cultures were passed to fresh medium every 2–3 days. For fluorescent imaging, the cells were grown in 4-well culture slides to about 70% confluence before use.
To facilitate detection, the recombinant CTP-containing carrier proteins were labeled with Dojindo IC3-Osu, which reacts with lysine residues of the protein, according to the recommended protocols by the manufacturer (Dojindo, Gaithersburg, Md.) (FIG. 5). About 0.5 mg/ml protein was reacted with 3-fold excess of the fluorescent dye in dark at room temperature for 1 hr, and the extra dye was removed using Bio-Rad Econo-Pac desalting column. The labeling efficiency was measured using UV-vis spectroscopy. On average, about 25–35% of protein molecules were labeled.
The binding specificity between CTP-containing carrier proteins and various cancer cell lines was evaluated with both the native carrier proteins and normal cell lines as negative controls. […]

Cc1c2oc3c(C)ccc(C(=O)N[C@@H]4C(=O)N[C@H](C(C)C)C(=O)N5CCC[C@H]5C(=O)N(C)CC(=O)N(C)[C@@H](C(C)C)C(=O)O[C@@H]4C)c3nc-2c(C(=O)N[C@@H]2C(=O)N[C@H](C(C)C)C(=O)N3CCC[C@H]3C(=O)N(C)CC(=O)N(C)[C@@H](C(C)C)C(=O)O[C@@H]2C)c(N)c1=O [Actinomycin D] (I: T[dV]P[Sar][NMeV] / II: T[dV]P[Sar][NMeV]; ester I:1-I:C, II:1-II:C; linker I:N-II:N via Actinocin(9to1))
part of the dose excreted intact into the bile ([1]; in vivo): Half of the dose

COc1cccc2c1C(=O)c1c(O)c3c(c(O)c1C2=O)C[C@@](O)(C(C)=O)C[C@@H]3O[C@H]1C[C@H](N)[C@H](O)[C@H](C)O1 [Daunorubicin, 5,12-Naphthacenedione, (8S-cis)-8-acetyl-10-((3-amino-2,3,6-trideoxy-a-L-lyxo-hexanopyranosyl)oxy)-7,8,9,10-tetrahydro-6,8,11-trihydroxy-10-methoxy-, hydrochloride]
secreted into the bile ([1]; in vivo): about 40%

CC[C@]1(O)C[C@@H]2CN(CCc3c([nH]c4ccccc34)[C@@](C(=O)OC)(c3cc4c(cc3OC)N(C)[C@H]3[C@@](O)(C(=O)OC)[C@H](OC(C)=O)[C@]5(CC)C=CCN6CC[C@]43[C@@H]65)C2)C1 [Vinblastine]
plasma half-life after distribution (first value) ([1]; after intravenous injection): approximately 1 hours
plasma half-life after distribution (second value) ([1]; after intravenous injection): ~20 h

SMSIARL [cancer-targeting peptide for prostate cancer]
targeting to prostates cancers relative to other organs (prostates cancers): 10–15 times

B1: native NcsA: His-tagged native neocarzinostatin apo-protein encoded by the ncsA gene of Streptomyces carzinostaticus; negative control (protein)
chain: AAPTATVTPSSGLSDGTVVKVAGAGLQAGTAYDVGQCAWVDTGVLACNPADFSSVTADANGSASTSLTVRRSFEGFLFDGTRWGTVDCTTAACQVGLSDAAGNGPEGVAISFN
modifications: left off: small tags and cut ends
notes: His-tagged native neocarzinostatin apo-protein encoded by the ncsA gene of Streptomyces carzinostaticus; negative control
fluorescence detected on cells after incubation with labeled protein [2]: no significant fluorescence

B2: native CagA: His-tagged native C-1027 apo-protein encoded by the cagA gene of Streptomyces globisporus; negative control (protein)
chain: APAFSVSPASGLSDGQSVSVSVSGAAAGETYYIAQCAPVGGQDACNPATATSFTTDASGAASFSFVVRKSYTGSTPEGTPVGSVDCATAACNLGAGNSGLDLGHVALTFG
modifications: left off: small tags and cut ends
notes: His-tagged native C-1027 apo-protein encoded by the cagA gene of Streptomyces globisporus; negative control
fluorescence detected on cells after incubation with labeled protein [2]: no significant fluorescence
